US20230095912A1, “Composition and Methods for Selective Degradation of Engineered Proteins” (Celgene Corporation, priority 2021, published 2023)
Like-named read-outs stand apart in the source and are kept apart here.

Experiments:
[1] = molecular target: T1, CD19 CARs tagged with IKZF1 ZNF2_ZNF3 Q1F (Homo sapiens, UniProt Q13422, Q146F); test: Small-molecule screen: Q1F degron-tagged CD19 CAR levels in Jurkat cells, flow cytometry; format: cell-based
T1 construct: EC50 (Q1F degron); other: Jurkat cells, 18 hours, CAR levels normalized to no drug; Ymin (Q1F degron); Ymin (%); minimum percent protein remaining; Nluc reporter
Description: A set of potential degron-targeting compounds was screened against the Q1F degron, resulting in a set of potent degron/small-molecule pairs. Lentiviral vectors containing CD19 CARs tagged with IKZF1 ZNF2_ZNF3 Q1F Nluc were transduced into Jurkat cells. The CD19 CAR was similar to the CD19 CAR in Example 2, but comprising the ZNF2_ZNF3 Q1F degron (SEQ ID NO: 19). Transduced cells were treated with a titration of each small molecule or no drug and then incubated at 37° C. for 18 hours. Cells were washed and stained with appropriate staining reagent to measure CAR levels. The cells were incubated at 4° C. in the staining reagents for 20 mins and then washed 3 times before being read on the flow cytometer. CAR levels were normalized to cells that had not been treated with drug. EC50 and Ymin values were calculated using the resulting titration curve. This identified small molecules that potently degraded the Q1F degron-tagged CARs (Table 1).

[2] = molecular target: T2, IKZF1 ZNF2_3 Q1F tagged CD19 CAR (Homo sapiens, UniProt Q13422, Q146F); test: CRBN and ubiquitin-proteasome pathway dependence of Q1F-tagged CAR degradation in Jurkat cells; format: cell-based; set-up: tagged CAR remaining / levels of tagged CAR: dose or concentration left out as unconfirmed; details: Jurkat CRBN KO cells, 1 hour
T2 construct: expressed in transfected cells; host or cells: Jurkat wild type, Jurkat CRBN knockout, Jurkat reporter line; lentiviral transduction
Description: (§1) The dependence of Q1F-degron-tagged CAR degradation on CRBN and ubiquitin proteolytic pathway were assessed. CD19-targeting CAR was tagged with either IKZF1 ZNF2_3 Q1F (SEQ ID NO: 19) or Q1F/G6N (SEQ ID NO: 59). Lentiviral vectors containing these tagged CARs were then transduced into wildtype (WT) or cereblon (CRBN) knockout (KO) Jurkat cells.
(§2) Next, dependence of CAR degradation on the ubiquitin-proteosome pathway was tested by treating WT Jurkats transduced with tagged CAR for 2 hours with DMSO, 20 nM or 200 nM Compound C alone, or alongside either 2 μM of the NEDD8 E1 enzyme inhibitor MLN4924 or 2 μM of proteasome blocker Bortezomib (FIG. 11C).

[3] = system: IKZF1 ZNF2_3 Q1F tagged CD19 CAR; test: as above; format: cell-based, human; set-up: tagged CAR remaining / levels of tagged CAR: dose or concentration left out as unconfirmed
Description: as §1, §2

[4] = system: IKZF1 ZNF2_3 Q1F tagged CD19 CAR; test: Jurkat reporter assay (tdTomato), signaling of Q1F-tagged CAR after degradation; format: cell-based, human; details: 1 mM pre-treatment 12 hours, co-culture with CD19-expressing K562 8 hours
Description: A lentiviral vector encoding ZNF2_3 Q1F or Q1F/G6N tagged CD19 CAR was transduced into the reporter cell line. […] Levels of tdTomato in the form of the overall percent of positive cells (FIG. 12A), as well as mean fluorescence intensity (MFI, FIG. 12B) were assessed by flow cytometry. Degradation of CARs containing the ZNF2_3 Q1F degron decreased signaling by around 30% using 1 mM Compound C and by around 75% using Compound B; this relative difference correlates with the depth of degradation seen for each. Further, the reduction in activity depends upon having an intact G-motif, as the G6N mutation prevents inhibition.

ePL-tagged GSPT1 = molecular target: T3, ePL-tagged GSPT1 (Homo sapiens, UniProt P15170+Q96SW2); test: ePL-tagged substrate degradation in DF15 multiple myeloma cells; format: cell-based
T3 construct: expressed in transfected cells
Description: (§3) DF15 multiple myeloma cells stably expressing ePL-tagged Aiolos, Ikaros, or GSPT1, and MDS-L cells stably expressing ePL-tagged CK1a were generated via lentiviral infection with pLOC-ePL-Aiolos (or Ikaros, GSPT1, or CK1a). […] Compounds were dispensed by an acoustic dispenser (ATS acoustic transfer system from EDC Biosystems) into a 384-well plate in a 10-point dose response curve using 3-fold dilutions starting at 10 μM and going down to […]. Then, 25 μL of media (RPMI-1640+10% heat inactivated FBS+25 mM Hepes+1 mM Na pyruvate+1× NEAA+1×Pen Strep Glutamine) containing 5000 of DF15 or MSD-L cells was dispensed per well. Assay plates were incubated at 37° C. with 5% CO2 for 4 hours except 20 hours for GSPT1. After incubation, 25 μL of the InCELL Hunter detection reagent working solution (DiscoverX, catalogue no. 96-0002, Fremont, Calif.) was added to each well and incubated at room temperature for 60 min protected from light. After 60 min, luminescence was read on an Envision or PHERAstar luminescence reader.
(§4) To determine the EC50 value of a compound for the degradation of a given substrate (concentration of compound that achieves half the maximum degradation observed), a four-parameter logistic model (sigmoidal dose—response model) (FIT=(A+{(B−A)/1+[(C/x)D]})) where C is the inflection point (EC50), D is the […], and A and B are the low and high limits of the fit, respectively) was used. All substrate degradation curves were processed and evaluated using ActivityBase (IDBS), a data analysis software package. Ymin is minimum percent protein remaining.

ePL-tagged Ikaros = molecular target: T4, ePL-tagged Ikaros (Homo sapiens, UniProt Q13422+Q96SW2); test: as above; format: cell-based
T4 construct: expressed in transfected cells
Description: as §3, §4

Helios = molecular target: T5, Helios (Homo sapiens, UniProt Q96SW2+Q9UKS7); test: Helios HiBit degradation in Jurkat cells; format: cell-based
T5 construct: endogenous in cells; host or cells: Jurkat/Helios/HiBit cells (CRISPR/Cas9 knock-in)
Description: For Helios, a stable Jurkat cell line was engineered using CRISPR/Cas9 to insert an in-frame HiBit tag into the carboxy-terminal reading frame of the IKZF2 gene. Test compounds were transferred to 1536 well plates using an acoustic dispenser, and Jurkat/Helios/HiBit cells in DMEM/10% FCS were plated at 10,000 cells/well in a final volume of 5 ul. Cells were incubated at 37C, 95% RH for 18 hr. Luciferase activity was measured by adding 2 ul/well of Nano-Glo reagent (Promega), incubating at RT for 30 min, and reading luminescence on a microtiter plate reader.
All substrate degradation curves were processed and evaluated using ActivityBase (IDBS), a data analysis software package. Ymin is minimum percent protein remaining.

[5] = system: CD19 CARs tagged with IKZF1 ZNF2_ZNF3 Q1F; test: Small-molecule screen: Q1F degron-tagged CD19 CAR levels in Jurkat cells, flow cytometry; format: cell-based, human; details: versus Helios, Aiolos, Ikaros, GSPT1, CK1a

T1 sequence (Q13422 whole entry Q146F): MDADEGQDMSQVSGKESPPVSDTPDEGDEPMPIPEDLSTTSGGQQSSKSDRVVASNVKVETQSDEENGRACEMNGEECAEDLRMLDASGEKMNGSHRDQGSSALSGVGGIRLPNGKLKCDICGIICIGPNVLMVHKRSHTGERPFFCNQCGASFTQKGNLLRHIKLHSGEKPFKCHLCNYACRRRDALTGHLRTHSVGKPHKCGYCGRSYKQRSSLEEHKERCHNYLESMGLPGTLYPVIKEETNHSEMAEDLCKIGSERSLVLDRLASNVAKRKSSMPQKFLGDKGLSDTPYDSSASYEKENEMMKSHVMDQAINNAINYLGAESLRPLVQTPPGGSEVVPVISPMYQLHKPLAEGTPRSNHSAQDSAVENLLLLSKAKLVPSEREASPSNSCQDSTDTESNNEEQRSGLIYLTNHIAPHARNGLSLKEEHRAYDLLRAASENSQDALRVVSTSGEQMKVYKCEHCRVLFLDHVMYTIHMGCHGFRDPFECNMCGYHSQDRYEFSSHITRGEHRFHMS
T4 sequence (Q13422 whole entry): as the sequence (Q13422 whole entry Q146F) above, with F146Q counted along it
T4 sequence (Q96SW2 whole entry): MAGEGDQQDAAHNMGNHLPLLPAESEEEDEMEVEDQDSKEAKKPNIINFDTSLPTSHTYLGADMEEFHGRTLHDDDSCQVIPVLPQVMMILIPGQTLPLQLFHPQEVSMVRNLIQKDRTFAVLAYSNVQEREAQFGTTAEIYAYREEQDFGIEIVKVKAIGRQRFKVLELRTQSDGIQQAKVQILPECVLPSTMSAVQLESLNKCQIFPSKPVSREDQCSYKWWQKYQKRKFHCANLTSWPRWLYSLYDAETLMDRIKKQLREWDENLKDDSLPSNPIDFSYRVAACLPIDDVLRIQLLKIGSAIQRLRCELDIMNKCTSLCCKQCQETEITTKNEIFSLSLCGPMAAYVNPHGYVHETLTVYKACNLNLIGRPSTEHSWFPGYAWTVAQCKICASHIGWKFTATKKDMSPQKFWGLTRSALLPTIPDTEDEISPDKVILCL
T4 sequence (Q16531 whole entry partner): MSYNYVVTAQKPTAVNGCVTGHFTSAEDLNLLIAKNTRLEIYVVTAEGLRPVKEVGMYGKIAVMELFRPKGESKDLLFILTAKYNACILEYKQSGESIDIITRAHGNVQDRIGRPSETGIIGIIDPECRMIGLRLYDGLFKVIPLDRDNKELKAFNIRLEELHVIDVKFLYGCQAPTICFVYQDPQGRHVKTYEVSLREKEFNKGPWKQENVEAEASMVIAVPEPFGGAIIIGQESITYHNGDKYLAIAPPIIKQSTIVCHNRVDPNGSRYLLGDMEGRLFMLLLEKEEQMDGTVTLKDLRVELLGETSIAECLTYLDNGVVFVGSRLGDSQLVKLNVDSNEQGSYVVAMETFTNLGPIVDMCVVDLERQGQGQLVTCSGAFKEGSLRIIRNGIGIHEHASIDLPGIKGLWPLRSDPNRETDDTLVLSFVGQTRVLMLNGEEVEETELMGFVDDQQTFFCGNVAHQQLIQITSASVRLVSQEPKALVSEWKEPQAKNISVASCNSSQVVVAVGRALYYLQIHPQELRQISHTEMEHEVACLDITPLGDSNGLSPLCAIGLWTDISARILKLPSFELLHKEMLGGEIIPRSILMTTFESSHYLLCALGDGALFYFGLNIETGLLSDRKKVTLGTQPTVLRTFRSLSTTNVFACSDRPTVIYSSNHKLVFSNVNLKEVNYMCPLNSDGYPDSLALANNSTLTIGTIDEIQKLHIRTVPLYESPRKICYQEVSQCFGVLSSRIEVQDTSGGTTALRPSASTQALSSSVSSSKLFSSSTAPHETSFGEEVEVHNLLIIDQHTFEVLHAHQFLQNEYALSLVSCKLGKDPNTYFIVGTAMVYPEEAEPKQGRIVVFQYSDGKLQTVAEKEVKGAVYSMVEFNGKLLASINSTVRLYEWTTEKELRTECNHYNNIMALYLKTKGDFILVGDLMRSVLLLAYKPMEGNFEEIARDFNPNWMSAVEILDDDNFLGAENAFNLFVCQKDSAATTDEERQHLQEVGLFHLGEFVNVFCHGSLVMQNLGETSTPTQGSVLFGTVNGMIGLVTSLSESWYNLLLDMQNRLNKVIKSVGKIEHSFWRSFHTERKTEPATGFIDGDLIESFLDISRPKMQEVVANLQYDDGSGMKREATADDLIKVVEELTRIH
T5 sequence (Q9UKS7 whole entry): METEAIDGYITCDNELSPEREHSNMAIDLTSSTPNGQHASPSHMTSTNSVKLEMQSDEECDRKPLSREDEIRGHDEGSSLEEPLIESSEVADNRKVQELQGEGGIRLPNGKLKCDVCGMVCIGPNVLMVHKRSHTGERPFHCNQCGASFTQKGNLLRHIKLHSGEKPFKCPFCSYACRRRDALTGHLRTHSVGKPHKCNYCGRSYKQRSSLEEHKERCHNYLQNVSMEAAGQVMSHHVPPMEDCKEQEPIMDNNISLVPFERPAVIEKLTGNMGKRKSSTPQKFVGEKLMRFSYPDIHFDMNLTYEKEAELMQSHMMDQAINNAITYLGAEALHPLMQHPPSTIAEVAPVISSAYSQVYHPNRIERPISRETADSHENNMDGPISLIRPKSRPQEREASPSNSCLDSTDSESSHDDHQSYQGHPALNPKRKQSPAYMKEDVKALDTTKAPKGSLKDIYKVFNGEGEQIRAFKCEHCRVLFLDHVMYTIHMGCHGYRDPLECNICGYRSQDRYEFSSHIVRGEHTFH
T5 sequence (Q96SW2 whole entry): as the sequence (Q96SW2 whole entry) above
T5 sequence (Q16531 whole entry partner): as the sequence (Q16531 whole entry partner) above
T3 sequence (P15170 whole entry): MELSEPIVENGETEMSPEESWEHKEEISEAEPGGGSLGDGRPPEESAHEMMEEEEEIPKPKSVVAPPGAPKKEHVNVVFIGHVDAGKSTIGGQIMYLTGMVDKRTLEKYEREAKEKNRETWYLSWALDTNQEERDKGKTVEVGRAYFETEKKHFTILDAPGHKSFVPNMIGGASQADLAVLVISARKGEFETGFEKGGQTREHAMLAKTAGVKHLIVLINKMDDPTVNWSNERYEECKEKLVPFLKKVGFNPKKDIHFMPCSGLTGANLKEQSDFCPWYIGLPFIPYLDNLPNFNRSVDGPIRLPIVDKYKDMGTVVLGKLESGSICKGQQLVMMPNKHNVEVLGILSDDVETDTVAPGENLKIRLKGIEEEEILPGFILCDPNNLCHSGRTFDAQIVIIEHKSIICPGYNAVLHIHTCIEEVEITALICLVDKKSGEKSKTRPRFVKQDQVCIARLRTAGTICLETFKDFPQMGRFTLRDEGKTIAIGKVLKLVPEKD
T3 sequence (Q96SW2 whole entry): as the sequence (Q96SW2 whole entry) above
T3 sequence (Q16531 whole entry partner): as the sequence (Q16531 whole entry partner) above
T2 sequence (Q13422 141-196 Q146F): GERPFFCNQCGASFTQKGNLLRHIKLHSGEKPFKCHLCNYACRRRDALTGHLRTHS

SMILES: Cc1ncccc1N1CCN(Cc2ccc3c(c2)CN(C2CCC(=O)NC2=O)C3=O)CC1 (stereo not shown) [Compound C, 3-(5-((4-(2-methylpyridin-3-yl)piperazin-1-yl)methyl)-1-oxoisoindolin-2-yl)piperidine-2,6-dione]
- Ymin (%) ([1]; Degron Q1F (from Table 1), minimum percent protein remaining): 12%
- DC50 ([1]; Degron Q1F (from Table 1), read-out: EC50 (the source's name)): 23 nM
- DC50 ([1]; Jurkat assay described in Example 5, read-out: EC50 for the Q1F degron): < 25 nM
- Ymin (Q1F degron) ([1]; Jurkat cells, 18 hours, CAR levels normalized to no drug): 12%
- DC50 ([1]; Jurkat cells, 18 hours, CAR levels normalized to no drug, read-out: EC50 (Q1F degron)): 23 nM
- levels of tagged CAR [2]: remained identical to untagged CAR
- tagged CAR remaining ([3]; WT Jurkat cells, 1 hour): below 20%
- tagged CAR degradation in the presence of inhibitor ([3]; WT Jurkats, 2 hours, 20 nM or 200 nM, alongside 2 μM MLN4924 or 2 μM Bortezomib): failure to degrade tagged CAR
- decrease of signaling (tdTomato reporter) [4]: around 30%
- Ymin (%) (ePL-tagged GSPT1): 89%
- DC50 (ePL-tagged GSPT1; GSPT1, DF15 cells, 20 hours, read-out: EC50 (the source's name)): > 10000 nM
- Ymin (%) (ePL-tagged Ikaros): 92%
- DC50 (ePL-tagged Ikaros; Ikaros, DF15 cells, 4 hours, read-out: EC50 (the source's name)): > 10000 nM
- Ymin (%) (Helios): 86%
- DC50 (Helios; Helios, Jurkat/Helios/HiBit cells, 18 hr, read-out: EC50 (the source's name)): > 10000 nM
- selectivity for the Q1F degron (in words) [5]: highly selective for the Q1F degron
